Assay results reported in patent publication US7250410B2, “Cyclic nucleotide phosphodiesterase inhibitors, preparation and uses thereof” (Via Pharmaceuticals, Inc., priority 2001, dated 2007).
“And” between values parts separate entries of the source, which are not always exact repeats. Equal entries are not always repeated.

Each compound was assayed against PDE4 (assay: Inhibition of PDE4, radioenzymatic phosphodiesterase assay). Settings: Table 3, formula (II); 1 μM cyclic AMP.
Type: biochemical, bovine
Procedure: A 3 g segment of bovine aortic media cut into pieces with scissors was homogenized with an ultra-turrax then a potter glass/glass homogenizer in 7 volumes by weight of buffer A containing a protease inhibitor cocktail (20 mM Tris-HCl, 0.25 M saccharose, 2 mM magnesium acetate, 1 mM dithiothreitol, 5 mM EGTA, 2000 U/ml aprotinin, 10 mg/l leupeptin and 10 mg/l soya trypsic inhibitor). The homogenizate was centrifuged at 105,000 g for 1 hour. […] The column was washed until there was no detectable absorption at 280 nm, then eluted with a linear gradient of NaCl (0–0.5 M) in buffer B. 3-ml fractions were collected and enzyme activity was determined under the conditions described hereinafter to localize the different enzymes PDE1, PDE3, PDE4 and PDE5, which were aliquoted and frozen at −80° C.
The nucleoside formed was separated from the nucleotides by anion exchange chromatography. Nucleoside radioactivity was determined by liquid scintillation counting.

Compound | IC50
COc1cc2c(cc1OC)N(C)C(=O)CN=C2/C=C/c1ccccc1 [IIas, 7,8-dimethoxy-1-methyl-5-[(E)-2-phenylethenyl]-1,3-dihydro-2H-1,4-benzodiazepin-2-one] | 8.4 µM
COc1ccc(C2=NCC(=O)N(C)c3cc(OC)c(OC)cc32)cc1 [IIaw, 7,8-dimethoxy-5-(4-methoxyphenyl)-1-methyl-1,3-dihydro-1,4-benzodiazepin-2-one] | 10 µM
COc1cc2c(cc1OC)N(C)C(=O)CN=C2c1cccc(Br)c1 [IIax, 5-(3-bromophenyl)-7,8-dimethoxy-1-methyl-1,3-dihydro-2H-1,4-benzodiazepin-2-one] | 8.2 µM
COc1cc2c(cc1OC)N(C)C(=O)CN=C2c1cccc(-c2ccccc2)c1 [IIay, 5-(1,1′-biphenyl-3-yl)-7,8-dimethoxy-1-methyl-1,3-dihydro-2H-1,4-benzodiazepin-2-one] | 6.6 µM
COc1cc2c(cc1OC)N(C)C(=O)CN=C2c1ccc(Br)cc1 [IIba, 5-(4-bromophenyl)-7,8-dimethoxy-1-methyl-1,3-dihydro-2H-1,4-benzodiazepin-2-one] | 17 µM
CCOc1cc2c(cc1OC)C(c1ccccc1)=NC(Cc1ccccc1)C(=O)N2CC (stereo not shown) [IIbb, 3-benzyl-8-ethoxy-1-ethyl-7-methoxy-5-phenyl-1,3-dihydro-2H-1,4-benzodiazepin-2-one] | 3.13 µM
CCOc1cc2c(cc1OCC)N(C)C(=O)CN=C2c1ccccc1 [IIbf, 7,8-diethoxy-1-methyl-5-phenyl-1,3-dihydro-2H-1,4-benzodiazepin-2-one] | 0.86 µM
CCN1C(=O)C(Cc2ccccc2[N+](=O)[O-])N=C(c2ccccc2)c2cc(OC)c(OC)cc21 (stereo not shown) [IIbh, 7,8-dimethoxy-1-ethyl-3-(2-nitrobenzyl)-5-phenyl-1,3-dihydro-2H-1,4-benzodiazepin-2-one] | 2.4 µM
CCOc1cc2c(cc1OCC)N(Cc1ccccc1)C(=O)CN=C2c1ccccc1 [IIbj, 1-benzyl-7,8-diethoxy-5-phenyl-1,3-dihydro-2H-1,4-benzodiazepin-2-one] | 6.5 µM
CCN1C(=O)CN=C(c2ccc(Br)cc2)c2cc(OC)c(OC)cc21 [IIbl, 5-(4-bromophenyl)-1-ethyl-7,8-dimethoxy-1,3-dihydro-2H-1,4-benzodiazepin-2-one] | 15 µM
CCN1C(=O)CN=C(c2cccc(Br)c2)c2cc(OC)c(OC)cc21 [IIbm, 5-(3-bromophenyl)-1-ethyl-7,8-dimethoxy-1,3-dihydro-2H-1,4-benzodiazepin-2-one] | 7.3 µM
CCN1C(=O)CN=C(c2ccc(C#CCOCc3ccccc3)cc2)c2cc(OC)c(OC)cc21 [IIbn, 5-{4-[3-(benzyloxy)prop-1-ynyl]phenyl}-1-ethyl-7,8-dimethoxy-1,3-dihydro-2H-1,4-benzodiazepin-2-one] | 2.95 µM
CCN1C(=O)CN=C(c2ccc(C#CCNC(=O)OC(C)(C)C)cc2)c2cc(OC)c(OC)cc21 [IIbo, tert-butyl 3-[4-(1-ethyl-7,8-dimethoxy-2-oxo-2,3-dihydro-1H-1,4-benzodiazepin-5-yl)phenyl]prop-2-ynylcarbamate] | 2.92 µM
CCN1C(=O)CN=C(c2ccc(-c3ccccc3)cc2)c2cc(OC)c(OC)cc21 [IIbp, 5-(1,1′-biphenyl-4-yl)-1-ethyl-7,8-dimethoxy-1,3-dihydro-2H-1,4-benzodiazepin-2-one] | 5.74 µM
CCN1C(=O)CN=C(c2ccc(C#Cc3ccccc3)cc2)c2cc(OC)c(OC)cc21 [IIbr, 1-ethyl-7,8-dimethoxy-5-[4-(phenylethynyl)phenyl]-1,3-dihydro-2H-1,4-benzodiazepin-2-one] | 6.6 µM and 3.8 µM
CCN1C(=O)CN=C(c2ccc(CCc3ccccc3)cc2)c2cc(OC)c(OC)cc21 [IIbu, 1-ethyl-7,8-dimethoxy-5-[4-(2-phenylethyl)phenyl]-1,3-dihydro-2H-1,4-benzodiazepin-2-one] | 12.4 µM and 18.7 µM

Same assay, conditions: Table 3, formula (II); compound at 10 μM

Compound | PDE4 percentage inhibition at 10 μM
COc1cc2c(cc1OC)N(C)C(=O)CN=C2N1CCCCC1 [IIar, 7,8-dimethoxy-1-methyl-5-(piperidin-1-yl)-1,3-dihydro-1,4-benzodiazepin-2-one] | 0%
COc1cc2c(cc1OC)N(C)C(=O)CN=C2C#Cc1ccccc1 [IIat, 7,8-dimethoxy-1-methyl-5-(2-phenylethynyl)-1,3-dihydro-2H-1,4-benzodiazepin-2-one] | 3.9%
COc1cc2c(cc1OC)N(C)C(=O)CN=C2c1ccccc1C [IIau, 7,8-dimethoxy-1-methyl-5-(2-methylphenyl)-1,3-dihydro-1,4-benzodiazepin-2-one] | 18.5%
COc1cc2c(cc1OC)N(C)C(=O)CN=C2N1CCc2ccccc2C1 [IIav, 7,8-dimethoxy-1-methyl-5-(N-tetrahydro-1,2,3,4-isoquinolyl)-1,3-dihydro-2H-1,4-benzodiazepin-2-one] | 15%
COc1cc2c(cc1OC)N(C)C(=O)CN=C2CCc1ccccc1 [IIaz, 7,8-dimethoxy-1-methyl-5-(2-phenylethyl)-1,3-dihydro-2H-1,4-benzodiazepin-2-one] | 6.9%
COc1cc2c(cc1OC)N(Cc1ccccc1)C(=O)CN=C2c1ccccc1 [IIbc, 1-benzyl-7,8-dimethoxy-5-phenyl-1,3-dihydro-2H-1,4-benzodiazepin-2-one] | 27.2%
CCN1C(=O)CN=C(c2ccccc2)c2cc(OC)c(OC)cc21 [IIbd, 1-ethyl-7,8-dimethoxy-5-phenyl-1,3-dihydro-2H-1,4-benzodiazepin-2-one] | 34.3%
CCCN1C(=O)CN=C(c2ccccc2)c2cc(OC)c(OC)cc21 [IIbe, 7,8-dimethoxy-5-phenyl-1-propyl-1,3-dihydro-2H-1,4-benzodiazepin-2-one] | 34.7%
CCOC(=O)CN1C(=O)CN=C(c2ccccc2)c2cc(OCC)c(OCC)cc21 [IIbi, ethyl (7,8-diethoxy-2-oxo-5-phenyl-2,3-dihydro-1H-1,4-benzodiazepin-1-yl)acetate] | 23.1%
CCN1C(=O)CN=C(c2ccccc2)c2cc(O)c(O)cc21 [IIbk, 1-ethyl-7,8-dihydroxy-5-phenyl-1,3-dihydro-2H-1,4-benzodiazepin-2-one] | 14.2%
C=CCC1N=C(c2ccccc2)c2cc(OC)c(OC)cc2N(CC)C1=O (stereo not shown) [IIbs, 3-allyl-1-ethyl-7,8-dimethoxy-5-phenyl-1,3-dihydro-2H-1,4-benzodiazepin-2-one] | 38.8%
C#CCC1N=C(c2ccccc2)c2cc(OC)c(OC)cc2N(CC)C1=O (stereo not shown) [IIbt, 1-ethyl-7,8-dimethoxy-5-phenyl-3-prop-2-ynyl-1,3-dihydro-2H-1,4-benzodiazepin-2-one] | 38.4%
CCOC(=O)CC1N=C(c2ccccc2)c2cc(OC)c(OC)cc2N(CC)C1=O (stereo not shown) [IIbv, ethyl (1-ethyl-7,8-dimethoxy-2-oxo-5-phenyl-2,3-dihydro-1H-1,4-benzodiazepin-3-yl)acetate] | 44.4%
CCN1C(=O)CN=C(c2cccc(C#Cc3ccccc3)c2)c2cc(OC)c(OC)cc21 [IIbw, 1-ethyl-7,8-dimethoxy-5-[3-(phenylethynyl)phenyl]-1,3-dihydro-2H-1,4-benzodiazepin-2-one] | 46.1%

Same assay, conditions: Table 3, formula (II); compound at 10 μM; 10 µM

Compound | PDE4 percentage inhibition at 10 μM
CCN1C(=O)C(Cc2ccc(Cl)cc2)N=C(c2ccccc2)c2cc(OC)c(OC)cc21 (stereo not shown) [IIbq, 3-(4-chlorobenzyl)-1-ethyl-7,8-dimethoxy-5-phenyl-1,3-dihydro-2H-1,4-benzodiazepin-2-one] | 33.8%
